Results reported in patent US20070191447A1, “Novel heterocyclic compound” (priority 2004, published 2007).

target: T1, benzodiazepine ω3 receptor (Rattus norvegicus, UniProt P16257); assay: Benzodiazepine ω3 receptor binding inhibition test ([3H]-PK-11195, rat kidney membrane fraction); conditions: 1 h, compound final concentration 100 nM, [3H]-PK-11195 1 nM, 4° C., one hour, read-out: [3H]-PK-11195 Binding inhibitory rate (%)
T1 construct: The kidney membrane fraction (ω3) was prepared as follows; from tissue; host or cells: rat (SD, male) kidney membrane fraction
Experimental: Experiment 1: Benzodiazepine ω3 receptor and benzodiazepine ω1, ω2 receptors binding inhibition test
The benzodiazepine ω3 receptor binding assay was carried out according to the method disclosed in the literature (Mol. Phamacol., 34, 800-805, 1988), and the benzodiazepine ω1, ω2 receptor binding assays were carried out according to the method disclosed in the literature (Neurophamacol., 34, 1169-1175, 1995), respectively.
SD male rats (Japan Charles River) were decapitated, and the kidney and the cerebral cortex were collected. The kidney membrane fraction (ω3) was prepared as follows. The kidney was homogenized with ice-cold 50 mM Tris-HCl buffer (pH 7.6) of about 5-times volume of the wet tissue weight, and the homogenate was centrifuged at 4° C. for 10 minutes at 20,000 g. The pellets thus obtained were suspended again, and centrifuged at 4° C. for 10 minutes at 20,000 g. These resuspension and centrifugation procedures were repeated once more, and the obtained pellets were diluted in a 50 mM Tris-HCl buffer (pH 7.6) into a concentration of 0.1 mg of protein per one assay of the receptor binding test. The cerebral cortex membrane fraction (ω1 and ω2) was prepared as follows. The cerebral cortex was homogenized with ice-cold potassium phosphate buffer (200 mM KCl, 20 mM KOH, 20 mM KH2PO4, pH 7.4) of 15-times volume of the wet tissue weight, and the homogenate was centrifuged at 4° C. for 15 minutes at 32,500 g. The obtained pellets were suspended again and centrifuged at 4° C. for 15 minutes at 32,500 g. These resuspension and centrifugation procedures were repeated once more, and the obtained pellets were diluted in the potassium phosphate buffer into a concentration of 0.1 mg of protein per one assay of the receptor binding test. Both of these membrane fractions were frozen and stored at −80° C.
As the [^3H]-labeled ligand, [^3H]-PK-11195 (for ω3; PerkinElmer) or [^3H]-Ro-15-1788 [Flumazenil] (for ω1 and ω2; PerkinElmer) was used. […] In order to obtain total binding in the binding inhibition assay, a 0.5% DMSO, the [^3H] labeled ligand (final concentration: 1 nM), and the membrane fraction were mixed (total volume: 1 mL), and the mixture was incubated at 4° C. (for ω3) or at 25° C. (for ω1 and ω2) for one hour. In order to obtain non-specific binding, the non-labeled ligand (final concentration: 10 μM) was added instead of 0.5% DMSO, and in order to study the binding affinity of the present compounds, a solution of the present compound (final concentration: 100 nM for ω3, or 10 μM for ω1 and ω2) in DMSO was added. After the one-hour incubation, the labeled ligand bound to the receptor was collected by filtration with suction through a 0.3% polyethyleneimine-treated GF/B filter using a cell harvester, and washed with ice-cold 50 mM Tris-HCl buffer (for ω3) or ice-cold potassium phosphate buffer (for ω1 and ω2) once. The radioactivity on the GF/B filter was measured with liquid scintillation counter (manufactured by Packard, Tri Carb 2700TR). The results were expressed by the inhibition rate (%) against the binding to the labeled ligand.

SMILES	inhibition at 0.1 µM
CN(C(=O)Cn1c(=O)sc2ccc(Br)cc21)c1ccccc1 [Example 55]	98%
CN(C(=O)Cn1c(=O)sc2c(Br)cccc21)c1ccccc1 [Example 56]	99%
CCCN(CCC)C(=O)Cn1c(=O)n(C)c2ccc(-c3ccccc3)cc21 [Example 60]	100%
CN(C(=O)Cn1c(=O)n(C)c2cc(-c3ccccc3)ccc21)c1ccccc1 [Example 61]	100%
CN(C(=O)Cn1c(=O)n2c3c(cccc31)CCC2)c1ccccc1 [Example 113, N-Methyl-2-(2-oxo-5,6-dihydro-4H-imidazo[4,5,1-ij]quinolin-1(2H)-yl)-N-phenylacetamide]	93%
CN(C(=O)Cn1c(=O)n2c3c(cc(Oc4ccccc4)cc31)CCC2)c1ccccc1 [Example 136, N-Methyl-2-(2-oxo-8-phenoxy-5,6-dihydro-4H-imidazo[4,5,1-ij]quinolin-1(2H)-yl)-N-phenylacetamide]	95%
CC(C(=O)N(C)c1ccccc1)n1c(=O)n2c3c(cc(Br)cc31)CCC2 (stereo not drawn) [Example 137, 2-(8-Bromo-2-oxo-5,6-dihydro-4H-imidazo[4,5,1-ij]quinolin-1(2H)-yl)-N-methyl-N-phenylpropanamide]	83%
CN(C(=O)C1CCc2cccc3c2n1c(=O)n3C)c1ccccc1 (stereo not drawn) [Example 142, N,1-Dimethyl-2-oxo-N-phenyl-1,2,5,6-tetrahydro-4H-imidazo[4,5,1-ij]quinoline-4-carboxamide]	83%
CN(C(=O)Cn1c(=O)oc2ccc(C(=O)c3ccccc3)cc21)c1ccccc1 [Example 373, 2-(5-Benzoyl-2-oxo-1,3-benzoxazol-3(2H) -yl)-N-methyl-N-phenyl-acetamide]	89%
CC(=O)c1cc(Br)cc2c1oc(=O)n2CC(=O)N(C)c1ccccc1 [Example 389, 2-(7-Acetyl-5-bromo-2-oxo-1,3-benzoxazol-3(2H)-yl)-N-methyl-N-phenyl-acetamide]	97%
CN(C(=O)Cn1c(=O)sc2ccc(-c3ccncc3)cc21)c1ccccc1 [Example 395, N-Methyl-2-(2-oxo-5-pyridin-4-yl-1,3-benzothiazol-3(2H)-yl)-N-phenyl-acetamide]	95%
CC(C)n1c(=O)n(CC(=O)N(C)c2ccccc2)c2cc(-c3ccccc3)ccc21 [Example 401, 2-(3-Isopropyl-2-oxo-6-phenyl-2,3-dihydro-1H-benzimidazol-1-yl)-N-methyl-N-phenylacetamide]	88%
